Legend:
[1] = system: C. parapsilosis ATCC 22019; parameters: method as in earlier work; conditions: cited from earlier work
[2] = Distribution in the 1-octanol/buffer pH 7.4 system; type: physicochemical; conditions: calculated by Henderson–Hasselbalch equation
[3] = parameters: method as in PMID 33713781; conditions: cited from earlier work
[4] = Membrane permeability assay through the PermeaPad barrier (Franz diffusion cell); type: in vitro ADME; conditions: buffer pH 7.4, 37 °C, values are Papp multiplied by 10^5, read-out: Papp⋅10^5, apparent permeability coefficient
Source text: A vertical-type Franz diffusion cell (PermeGear, Inc., Hellertown, PA, USA) was used to measure the permeability of the studied compounds. The biomimetic lipophilic PermeaPad barrier (PHABIOC, Germany, www.permeapad.com, accessed on 20 May 2021) fully described by di Cagno et al. was employed in the present study to simulate the morphology and properties of the biologic membranes. This membrane was chosen because of its advantageous properties and user friendliness. PermeaPad belongs to cell-free permeation systems. It is composed of two cellulose membranes with a thin layer of phosphatidylcholine (S-100) between them. […]
Firstly, the donor chamber was filled with the donor solution of the tested compound in buffer pH 7.4, then the PermeaPad barrier was mounted between the donor and receptor parts of the diffusion cell (0.785 cm^2 effective surface area) carefully avoiding the air bubbles (which can minimize the active area of the membrane, thus, slowing the permeation). […] The sample solution concentrations were measured spectrophotometrically (Spectramax 190; Molecular Devices, Molecular Devices Corporation, San Jose, CA, USA) in 96-well UV black plates (Costar) at λ = 270 nm. […]
The apparent permeability coefficient (Papp) was calculated by normalizing the slope (J) by the compound concentration in the donor solution (C0) by the equation:(9) Papp=J/C0 […]

Row | Structure (SMILES) | log(1/MIC) [1] | logK0, distribution coefficient for the uncharged particles [2] | logKoct/buf, apparent distribution coefficient in the 1-octanol/buffer pH 7.4 system [3] | Papp at 5 h [4] [×10⁻⁶ cm/s]
1 | Cc1ccc(-n2c(=S)sc3c(=O)n(CCN4CCN(CC(O)(Cn5cncn5)c5ccc(F)cc5F)CC4)cnc32)cc1 (centres unmarked) [XII, N-[2-[4-[2-(2,4-difluorophenyl)-2-hydroxy-3-(1,2,4-triazol-1-yl)propyl]piperazin-1-yl]ethyl]-2-methyl-3-(p-tolyl)-2-thioxo-thiazolo[4,5-d]pyrimidin-7-one] | 0.30 | -3.95 | 2.90 | 18.8 ± 0.42
2 | COc1ccccc1-n1c(=S)sc2c(=O)n(CC(O)(Cn3cncn3)c3ccc(F)cc3F)cnc21 (centres unmarked) [II, N-[2-(2,4-difluorophenyl)-2-hydroxy-3-(1,2,4-triazol-1-yl)propyl]-3-(2-methoxyphenyl)-2-thioxo-thiazolo[4,5-d]pyrimidin-7-one] | -0.90 | -4.66 | – | –
3 | O=C(Cn1cnc2c(sc(=S)n2-c2ccc(Cl)cc2)c1=O)NCC(O)(Cn1cncn1)c1ccc(F)cc1F (centres unmarked) [V, N-[2-(2,4-difluorophenyl)-2-hydroxy-3-(1,2,4-triazol-1-yl)propyl]-2-[3-(4-chlorophenyl)-7-oxo-2-thioxo-thiazolo[4,5-d]pyrimidin-6-yl]-acetamide] | -1.51 | -4.69 | – | –
4 | Cc1ccc(-n2c(=S)sc3c(=O)n(CC(O)(Cn4cncn4)c4ccc(F)cc4F)cnc32)cc1 (centres unmarked) [I, N-[2-(2,4-difluorophenyl)-2-hydroxy-3-(1,2,4-triazol-1-yl)propyl]-3-(p-tolyl)-2-thioxo-thiazolo[4,5-d]pyrimidin-7-one] | -1.51 | – | 0.79 | –
5 | Cc1ccc(-n2c(=S)sc3c(=O)n(CC(=O)NCC(O)(Cn4cncn4)c4ccc(F)cc4F)cnc32)cc1 (centres unmarked) [IV, N-[2-(2,4-difluorophenyl)-2-hydroxy-3-(1,2,4-triazol-1-yl)propyl]-2-[7-oxo-3-(p-tolyl)-2-thioxo-thiazolo[4,5-d]pyrimidin-6-yl]acetamide] | -1.51 | -4.68 | 1.27 | –
6 | COc1ccccc1-n1c(=S)sc2c(=O)n(CC(=O)NCC(O)(Cn3cncn3)c3ccc(F)cc3F)cnc21 (centres unmarked) [VII, N-[2-(2,4-difluorophenyl)-2-hydroxy-3-(1,2,4-triazol-1-yl)propyl]-2-[3-(2-methoxyphenyl)-7-oxo-2-thioxo-thiazolo[4,5-d]pyrimidin-6-yl]acetamide] | -1.51 | -4.73 | 0.80 | –
7 | O=C(Cn1cnc2c(sc(=S)n2-c2ccc(F)cc2)c1=O)NCC(O)(Cn1cncn1)c1ccc(F)cc1F (centres unmarked) [VI, N-[2-(2,4-difluorophenyl)-2-hydroxy-3-(1,2,4-triazol-1-yl)propyl]-2-[3-(4-fluorophenyl)-7-oxo-2-thioxo-thiazolo[4,5-d]pyrimidin-6-yl]acetamide] | -1.51 | -4.72 | – | –
8 | O=c1c2sc(=S)n(-c3ccc(F)cc3)c2ncn1CC(O)(Cn1cncn1)c1ccc(F)cc1F (centres unmarked) [III, N-[2-(2,4-difluorophenyl)-2-hydroxy-3-(1,2,4-triazol-1-yl)propyl]-3-(4-fluorophenyl)-2-thioxo-thiazolo[4,5-d]pyrimidin-7-one] | -1.51 | -4.76 | – | –

— paper PMC9823331, “Permeability of New Antifungal Fluconazole Derivatives through a Lipophilic Membrane: Experiment and Modeling” (Molecules, 2023)
